Columns and labels:
Test in all cases: Test D greenhouse paddy-water test in rice
Assay type in all cases: in vivo
Conditions in all cases: 21 days, 0-100 scale
[1] = tested on: Alisma plantago-aquatica (Ap)
Text: (§1) Four plastic pots (ca. 16-cm diameter) per rate were partially filled with sterilized Tama silt loam soil comprised of a 35:50:15 ratio of sand, silt and clay and 2.6% organic matter. Separate plantings for each of the four pots were as follows. Seeds from the U.S. of Heteranthera limosa (Hl), Monochoria vaginalis (Mv), Ammania auriculata (Aa), and Sphenoclea zeylanica (Sz) were planted into one 16-cm pot for each rate. Seeds from the U.S. of Cyperus iria (Ci), Leptochloa fascicularis (Li), one stand of 9 or 10 direct-seeded rice seedlings (Oryza saliva cv. ‘Japonica—M202’; Oss), and one stand of 6 transplanted rice seedlings (Oryza sativa cv. ‘Japonica—M202’; Ost) were planted into one 16-cm pot for each rate. Seeds from the U.S. of Cyperus difformis (Cd), Alisma plantago-aquatica (Ap), and Scirpus mucronatus (Sm) were planted into one 16-cm pot for each rate. Seeds from the U.S. of Echinochloa crus-galli (Ecg), Echinochloa oryzicola (Eor), Echinochloa oryzoides (Eoz) and Echinochloa colonum (Ecc) were planted into one 16-cm pot for each rate. Plantings were sequential so that crop and weed species were at the 2.0 to 2.5-leaf stage at time of treatment.
(§2) Potted plants were grown in a greenhouse with day/night temperature settings of 29.5/26.7° C., and supplemental balanced lighting was provided to maintain a 16-hour photoperiod. Test pots were maintained in the greenhouse until test completion.
(§3) Chemical treatments consisting of Compound 1 of Index Table A (Cmpd 1), daimuron (Cmpd D), quinoclamine (Cmpd Q) and combinations thereof were formulated in acetone. At time of treatment, test pots were flooded to 3 cm above the soil surface, treated by application of test compounds directly to the paddy water, and then maintained at that water depth for the duration of the test. Effects of treatments on rice and weeds were visually evaluated by comparison to untreated controls after 21 days. Plant response ratings are reported on a 0 to 100 scale; where 0 is no effect and 100 is complete control. ND means no data.
(§4) Colby's equation was used to calculate the expected additive herbicidal effect of the mixtures of Compound 1 with daimuron (Cmpd D) and quinoclamine (Cmpd Q). Colby's equation (Colby, S. R “Calculating Synergistic and Antagonistic Responses of Herbicide Combinations,” Weeds, 15(1), pp 20–22 (1967)) calculates the expected additive effect of herbicidal mixtures, and for two active ingredients is of the form: Pa+b=Pa+Pb−(PaPb/100) wherein Pa+b is the percentage effect of the mixture expected from additive contribution of the individual components, • Pa is the observed percentage effect of the first active ingredient at the same use rate as in the mixture, and • Pb is the observed percentage effect of the second active ingredient at the same use rate as in the mixture.

[2] = tested on: Ammania auriculata (Aa)
Text: as §1, §2, §3, §4

[3] = tested on: Cyperus difformis (Cd)
Text: as §1, §2, §3, §4

[4] = tested on: Cyperus iria (Ci)
Text: as §1, §2, §3, §4

[5] = tested on: Echinochloa colonum (Ecc)
Text: as §1, §2, §3, §4

[6] = tested on: Echinochloa crus-galli (Ecg)
Text: as §1, §2, §3, §4

[7] = tested on: Echinochloa oryzicola (Eor)
Text: as §1, §2, §3, §4

[8] = tested on: Echinochloa oryzoides (Eoz)
Text: as §1, §2, §3, §4

[9] = tested on: Heteranthera limosa (Hl)
Text: as §1, §2, §3, §4

[10] = tested on: Leptochloa fascicularis (Li)
Text: as §1, §2, §3, §4

[11] = tested on: Monochoria vaginalis (Mv)
Text: as §1, §2, §3, §4

[12] = tested on: Scirpus mucronatus (Sm)
Text: as §1, §2, §3, §4

[13] = tested on: Sphenoclea zeylanica (Sz)
Text: as §1, §2, §3, §4

[14] = tested on: direct-seeded rice seedlings (Oryza saliva cv. 'Japonica—M202'; Oss)
Text: as §1, §2, §3, §4

[15] = tested on: transplanted rice seedlings (Oryza sativa cv. 'Japonica—M202'; Ost)
Text: as §1, §2, §3, §4

## CC(C)(C)c1ccn(C2SCN(c3cccc(C(F)(F)F)c3)C2=O)n1 (centres unmarked) [Compound 1]
[1]; 32 g/ha alone
  Obs. (observed effect) Ap: 100
[1]; 64 g/ha alone
  Obs. (observed effect) Ap: 100
[1]; 125 g/ha alone
  Obs. (observed effect) Ap: 100
[1]; 250 g/ha alone
  Obs. (observed effect) Ap: 100
[1]; 500 g/ha alone
  Obs. (observed effect) Ap: 100
[2]; 32 g/ha alone
  Obs. (observed effect) Aa: 85
[2]; 64 g/ha alone
  Obs. (observed effect) Aa: 95
[2]; 125 g/ha alone
  Obs. (observed effect) Aa: 100
[2]; 250 g/ha alone
  Obs. (observed effect) Aa: 100
[2]; 500 g/ha alone
  Obs. (observed effect) Aa: 100
[3]; 32 g/ha alone
  Obs. (observed effect) Cd: 100
[3]; 64 g/ha alone
  Obs. (observed effect) Cd: 100
[3]; 125 g/ha alone
  Obs. (observed effect) Cd: 100
[3]; 250 g/ha alone
  Obs. (observed effect) Cd: 100
[3]; 500 g/ha alone
  Obs. (observed effect) Cd: 100
[4]; 32 g/ha alone
  Obs. (observed effect) Ci: 95
[4]; 64 g/ha alone
  Obs. (observed effect) Ci: 100
[4]; 125 g/ha alone
  Obs. (observed effect) Ci: 100
[4]; 250 g/ha alone
  Obs. (observed effect) Ci: 100
[4]; 500 g/ha alone
  Obs. (observed effect) Ci: 100
[5]; 32 g/ha alone
  Obs. (observed effect) Ecc: 0
[5]; 64 g/ha alone
  Obs. (observed effect) Ecc: 100
[5]; 125 g/ha alone
  Obs. (observed effect) Ecc: 100
[5]; 250 g/ha alone
  Obs. (observed effect) Ecc: 100
[5]; 500 g/ha alone
  Obs. (observed effect) Ecc: 100
[6]; 32 g/ha alone
  Obs. (observed effect) Ecg: 0
[6]; 64 g/ha alone
  Obs. (observed effect) Ecg: 85
[6]; 125 g/ha alone
  Obs. (observed effect) Ecg: 100
[6]; 250 g/ha alone
  Obs. (observed effect) Ecg: 100
[6]; 500 g/ha alone
  Obs. (observed effect) Ecg: 100
[7]; 32 g/ha alone
  Obs. (observed effect) Eor: 0
[7]; 64 g/ha alone
  Obs. (observed effect) Eor: 30
[7]; 125 g/ha alone
  Obs. (observed effect) Eor: 40
[7]; 250 g/ha alone
  Obs. (observed effect) Eor: 100
[7]; 500 g/ha alone
  Obs. (observed effect) Eor: 100
[8]; 32 g/ha alone
  Obs. (observed effect) Eoz: 20
[8]; 64 g/ha alone
  Obs. (observed effect) Eoz: 100
[8]; 125 g/ha alone
  Obs. (observed effect) Eoz: 100
[8]; 250 g/ha alone
  Obs. (observed effect) Eoz: 100
[8]; 500 g/ha alone
  Obs. (observed effect) Eoz: 100
[9]; 64 g/ha alone
  Obs. (observed effect) Hl: 40
[9]; 125 g/ha alone
  Obs. (observed effect) Hl: 90
[9]; 250 g/ha alone
  Obs. (observed effect) Hl: 100
[9]; 500 g/ha alone
  Obs. (observed effect) Hl: 100
[10]; 32 g/ha alone
  Obs. (observed effect) Lf: 90
[10]; 64 g/ha alone
  Obs. (observed effect) Lf: 100
[10]; 125 g/ha alone
  Obs. (observed effect) Lf: 100
[10]; 250 g/ha alone
  Obs. (observed effect) Lf: 100
[10]; 500 g/ha alone
  Obs. (observed effect) Lf: 100
[11]; 32 g/ha alone
  Obs. (observed effect) Mv: 100
[11]; 64 g/ha alone
  Obs. (observed effect) Mv: 100
[11]; 125 g/ha alone
  Obs. (observed effect) Mv: 100
[11]; 250 g/ha alone
  Obs. (observed effect) Mv: 100
[11]; 500 g/ha alone
  Obs. (observed effect) Mv: 100
[12]; 32 g/ha alone
  Obs. (observed effect) Sm: 60
[12]; 64 g/ha alone
  Obs. (observed effect) Sm: 100
[12]; 125 g/ha alone
  Obs. (observed effect) Sm: 100
[12]; 250 g/ha alone
  Obs. (observed effect) Sm: 100
[12]; 500 g/ha alone
  Obs. (observed effect) Sm: 100
[13]; 32 g/ha alone
  Obs. (observed effect) Sz: 100
[13]; 64 g/ha alone
  Obs. (observed effect) Sz: 100
[13]; 125 g/ha alone
  Obs. (observed effect) Sz: 100
[13]; 250 g/ha alone
  Obs. (observed effect) Sz: 100
[13]; 500 g/ha alone
  Obs. (observed effect) Sz: 100
[14]; 32 g/ha alone
  Obs. (observed effect) Oss: 40
[14]; 64 g/ha alone
  Obs. (observed effect) Oss: 40
[14]; 125 g/ha alone
  Obs. (observed effect) Oss: 70
[14]; 250 g/ha alone
  Obs. (observed effect) Oss: 100
[14]; 500 g/ha alone
  Obs. (observed effect) Oss: 100
[15]; 32 g/ha alone
  Obs. (observed effect) Ost: 15
[15]; 64 g/ha alone
  Obs. (observed effect) Ost: 0
[15]; 125 g/ha alone
  Obs. (observed effect) Ost: 0
[15]; 250 g/ha alone
  Obs. (observed effect) Ost: 20
[15]; 500 g/ha alone
  Obs. (observed effect) Ost: 60
